Results on 29 compounds are retold here after patent US9650380B2, “Difluoromethylene compound” (SATO PHARMACEUTICAL CO., LTD., priority 2012, dated 2017).

The assay concerns the target T1, human URAT1 (Homo sapiens, UniProt Q96S37).
T1 construct: Human URAT1 full-length cDNA was introduced to an expression vector pcDNA5/FRT/V5-His TOPO; expressed in transfected cells
T1 sequence (Q96S37 1-553): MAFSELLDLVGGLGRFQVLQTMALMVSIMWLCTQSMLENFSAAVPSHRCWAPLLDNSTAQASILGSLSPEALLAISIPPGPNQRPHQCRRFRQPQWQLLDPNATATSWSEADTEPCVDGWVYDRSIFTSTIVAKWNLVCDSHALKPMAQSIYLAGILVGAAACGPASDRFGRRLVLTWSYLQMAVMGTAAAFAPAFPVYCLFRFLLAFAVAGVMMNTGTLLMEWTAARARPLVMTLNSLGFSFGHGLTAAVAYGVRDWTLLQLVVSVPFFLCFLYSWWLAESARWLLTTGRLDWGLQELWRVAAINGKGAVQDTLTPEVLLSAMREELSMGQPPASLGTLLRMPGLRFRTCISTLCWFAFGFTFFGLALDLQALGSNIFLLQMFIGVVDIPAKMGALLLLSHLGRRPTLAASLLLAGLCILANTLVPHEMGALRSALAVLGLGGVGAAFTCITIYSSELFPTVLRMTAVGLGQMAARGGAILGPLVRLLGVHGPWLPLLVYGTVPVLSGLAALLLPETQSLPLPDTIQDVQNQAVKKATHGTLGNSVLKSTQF
Briefly: Test for uric acid transport inhibition using human URAT1 expression cells. In kind it is cell-based. As to conditions: human URAT1 stable expression CHO cells; 14C-labeled uric acid 38 μM final; incorporation 5 minutes at room temperature; 100% window defined with benzbromarone 100 μM; read-out: URAT1 inhibitory activity (IC50). The protocol:
In this Example, it was evaluated whether the Example compound and the Reference example compound mentioned below has the URAT1 inhibitory activity.
Human URAT1 full-length cDNA was introduced to an expression vector pcDNA5/FRT/V5-His TOPO (registered trademark) (Invitrogen Corporation). The obtained expression plasmid was introduced to Chinese hamster ovary cell (hereinafter referred to as the CHO cell) by the liposome method using Lipofectamine LTX (Invitrogen) and cultured in a selection medium including hygromycin, whereby to prepare human URAT1 stable expression cell.
The human URAT1 expression CHO cell were cultured using D-MEM/F-12 (1:1) mixed medium including 10% bovine fatal serum and hygromycin at 37° C. in the presence of 5% CO2. The cells were seeded onto a 96-well plate (Corning Incorporated) at 0.8×10^5 cells/well, and after 24 hours, the test for uric acid transport inhibition below was performed.
The medium was removed by aspiration, and then the cells were washed once with an assay buffer including 125 mM of sodium gluconate, 4.8 mM of potassium gluconate, 1.2 mM of potassium dihydrogen phosphate, 1.2 mM of magnesium sulfate, 1.3 mM of calcium gluconate and 5.6 mM of glucose, 50 μL assay buffer including the test compound in various concentrations was added, and further 50 μL assay buffer including a radioactive ligand (uric acid labeled with ^14C; 38 μM final concentration) was added, and incorporation reaction was performed at room temperature for 5 minutes. Immediately after the completion of the reaction, the reaction mixture was washed twice with 100 μL ice-cold assay buffer, and 100 μL of 0.1N sodium hydroxide was added. The reaction mixture was stirred to lyse the cells, and 4 mL of Hionic-Fluor (Packard BioScience CO.) was added, and then the radioactivity was measured with a liquid scintillation counter (Beckman Coulter, Inc. and Packard BioScience CO).
The radioactivitiy when each concentration of the test compound was added (uric acid incorporation activity, %) was calculated in which the difference of the radioactivity when the test compound was not added (DMSO added) and the radioactivity when a positive control compound, benzbromarone (a known URAT1 inhibitor) was added in 100 μM, was taken as 100%, and the concentration of the test compound when the uric acid incorporation activity was inhibited to 50% (IC50) was obtained.

pIC50: −log10 of the molar value.

As a reminder, the pIC50 is the negative decadic logarithm of the IC50, by convention in mol/L. Consider `Cc1cccc(Cl)c1Cn1nc(C)c2ccc(C(F)(F)C(=O)O)cc21` [Example 3, [1-(2-chloro-6-methylbenzyl)-3-methyl-1H-indazol-6-yl]difluoroacetic acid], for which the pIC50 is 7.59.
Consider `Cc1nn(Cc2c(Cl)cccc2C2CC2)c2cc(C(F)(F)C(=O)O)ccc12` [Example 12, [1-(2-chloro-6-cyclopropylbenzyl)-3-methyl-1H-indazol-6-yl]difluoroacetic acid], for which the pIC50 was 7.77.
The same measure for `O=C(O)C(F)(F)c1ccc2c(Cl)nn(Cc3c(Cl)cccc3Cl)c2c1` [Example 34, [3-chloro-1-(2,6-dichlorobenzyl)-1H-indazol-6-yl]difluoroacetic acid]: 7.82.
With `O=C(O)C(F)(F)c1ccc2c(C(F)(F)F)nn(Cc3c(Cl)cccc3Cl)c2c1` [Example 36, [1-(2,6-dichlorobenzyl)-3-trifluoromethyl-1H-indazol-6-yl]difluoroacetic acid], the pIC50 was 6.97.
On to `Cc1nn(Cc2c(Cl)cccc2C2CC2)c2cc(C(F)(F)C(=O)O)cnc12` [Example 38, [1-(2-chloro-6-cyclopropylbenzyl)-3-methyl-1H-pyrazolo[4,3-b]pyridin-6-yl]difluoroacetic acid], for which the negative-log IC50 (pIC50) is 7.47.
With `CCc1nn(Cc2c(F)cccc2C2CC2)c2cc(C(F)(F)C(=O)O)cnc12` [Example 46, [1-(2-cyclopropyl-6-fluorobenzyl)-3-ethyl-1H-pyrazolo[4,3-b]pyridin-6-yl]difluoroacetic acid], the pIC50 was 6.61.
With `Cc1cn(Cc2c(Cl)cccc2Cl)c2cc(C(F)(F)C(=O)O)ccc12` [Example 49, [1-(2,6-dichlorobenzyl)-3-methyl-1H-indol-6-yl]difluoroacetic acid], the pIC50 is 7.42.
`Cc1nn(Cc2c(Cl)cccc2Cl)c2cc(C(F)(F)c3nnn[nH]3)ccc12` [Example 50, 1-(2,6-dichlorobenzyl)-6-[difluoro(1H-tetrazol-5-yl)methyl]-3-methyl-1H-indazole]: the pIC50 is 8.15.
In the case of `Cc1cccc(C#N)c1Cn1nc(C)c2ccc(C(F)(F)c3nnn[nH]3)cc21` [Example 71, 2-{6-[difluoro(1H-tetrazol-5-yl)methyl]-3-methyl-1H-indazol-1-ylmethyl}-3-methylbenzonitrile] it was 8.22; in that of `Cc1nn(Cc2ccc(C#N)cc2)c2cc(C(F)(F)c3nnn[nH]3)ccc12` [Example 88, 4-{6-[difluoro(1H-tetrazol-5-yl)methyl]-3-methyl-1H-indazol-1-ylmethyl}benzonitrile], 7.47; in that of `Cc1nn(Cc2c(C#N)ccnc2Cl)c2cc(C(F)(F)c3nnn[nH]3)ccc12` [Example 92, 2-chloro-3-{6-[difluoro(1H-tetrazol-5-yl)methyl]-3-methyl-1H-indazol-1-ylmethyl}isonicotinonitrile], 7.68.
On to `Cc1nn(Cc2cccc3ccncc23)c2cc(C(F)(F)c3nnn[nH]3)ccc12` [Example 94, 8-{6-[difluoro(1H-tetrazol-5-yl)methyl]-3-methyl-1H-indazol-1-ylmethyl}isoquinoline], for which the pIC50 was 6.90.
With `Cc1nn(Cc2c(F)cccc2Cl)c2cc(C(F)(F)c3n[nH]c(=O)o3)ccc12` [Example 101, 5-{[1-(2-chloro-6-fluorobenzyl)-3-methyl-1H-indazol-6-yl]difluoromethyl}-1,3,4-oxadiazol-2(3H)-one], the pIC50 is 8.05.
For `Cc1nn(S(=O)(=O)c2c(Cl)cccc2Cl)c2cc(C(F)(F)c3nnn[nH]3)ccc12` [Example 102, 1-(2,6-dichlorobenzenesulfonyl)-6-[difluoro(1H-tetrazol-5-yl)methyl]-3-methyl-1H-indazole], the negative logarithm of the IC50 (pIC50) is 6.85.
The same measure for `Cc1cccc(CC#N)c1Cn1nc(C)c2ccc(C(F)(F)c3nnn[nH]3)cc21` [Example 107, (2-{6-[difluoro(1H-tetrazol-5-yl)methyl]-3-methyl-1H-indazol-1-ylmethyl}-3-methylphenyl)acetonitrile]: 7.92; for `Cc1cccc(C#N)c1Cn1nc(C)c2ccc(C(F)(F)c3nnn[nH]3)nc21` [Example 109, 2-{6-[difluoro(1H-tetrazol-5-yl)methyl]-3-methyl-1H-pyrazolo[3,4-b]pyridin-1-ylmethyl}-3-methylbenzonitrile]: 7.89; for `Cc1nn(Cc2c(Cl)cccc2C2CC2)c2cc(C(=O)O)cnc12` [Reference Example 2, 1-(2-chloro-6-cyclopropylbenzyl)-3-methyl-1H-pyrazolo[4,3-b]pyridine-6-carboxylic acid, reference compound]: 7.28.
Regarding `O=C(O)c1cnc2c(Cl)nn(Cc3c(Cl)cccc3C3CC3)c2c1` [Reference Example 3, 3-chloro-1-(2-chloro-6-cyclopropylbenzyl)-1H-pyrazolo[4,3-b]pyridine-6-carboxylic acid, reference compound], the negative logarithm of the IC50 (pIC50) is 7.49.
On to `O=C(O)c1cnc2c(C(F)(F)F)nn(Cc3c(Cl)cccc3C3CC3)c2c1` [Reference Example 5, 1-(2-chloro-6-cyclopropylbenzyl)-3-trifluoromethyl-1H-pyrazolo[4,3-b]pyridine-6-carboxylic acid, reference compound], for which the negative-log IC50 (pIC50) was 7.89.
For the compound `Cc1nn(Cc2c(Cl)cccc2C2CC2)c2cc(CCC(=O)O)ccc12` [Reference Example 8, 3-[1-(2-chloro-6-cyclopropylbenzyl)-3-methyl-1H-indazol-6-yl]propionic acid, reference compound], the negative logarithm of the IC50 (pIC50) was 7.62.
In the case of `Cc1nn(Cc2c(Cl)cccc2Cl)c2cc(C(O)c3nnn[nH]3)ccc12` (centres unmarked) [Reference Example 9, [1-(2,6-dichlorobenzyl)-3-methyl-1H-indazol-6-yl](1H-tetrazol-5-yl)methanol, reference compound], the negative-log IC50 (pIC50) is 7.11.
Take `O=C(O)Cc1ccc2c(C(F)(F)F)nn(Cc3c(Cl)cccc3Cl)c2c1` [Reference Example 11, [1-(2,6-dichlorobenzyl)-3-trifluoromethyl-1H-indazol-6-yl]acetic acid, reference compound]: the negative logarithm of the IC50 (pIC50) is 7.82.
The same measure for `O=C(O)Cc1ccc2c(Cl)nn(Cc3c(Cl)cccc3Cl)c2c1` [Reference Example 12, [3-chloro-1-(2,6-dichlorobenzyl)-1H-indazol-6-yl]acetic acid, reference compound]: 7.80; for `Cc1nn(Cc2c(F)cccc2Cl)c2cc(C(F)(F)C(=O)O)ccc12` [example 9, [1-(2-chloro-6-fluorobenzyl)-3-methyl-1H-indazol-6-yl]difluoroacetic acid]: 7.40.
For the compound `Cc1nn(Cc2cccc(Cl)c2Cl)c2cc(C(F)(F)C(=O)O)ccc12` [example 14, [1-(2,3-dichlorobenzyl)-3-methyl-1H-indazol-6-yl]difluoroacetic acid], the negative logarithm of the IC50 (pIC50) was 7.32.
As for `Cc1nn(Cc2c(F)cccc2C(F)(F)F)c2cc(C(F)(F)C(=O)O)ccc12` [example 22, difluoro[1-(2-fluoro-6-trifluoromethylbenzyl)-3-methyl-1H-indazol-6-yl]acetic acid], the pIC50 is 7.28.
The same measure for `Cc1cccc(C#N)c1Cn1nc(C)c2ccc(C(F)(F)C(=O)O)cc21` [example 24, [1-(2-cyano-6-methylbenzyl)-3-methyl-1H-indazol-6-yl]difluoroacetic acid]: 7.59.
For `Cc1nn(Cc2c(C#N)cccc2C2CC2)c2cc(C(F)(F)C(=O)O)ccc12` [example 32, [1-(2-cyano-6-cyclopropylbenzyl)-3-methyl-1H-indazol-6-yl]difluoroacetic acid], the negative logarithm of the IC50 (pIC50) is 7.64.
On to `Cc1nn(Cc2c(C#N)cccc2CO)c2cc(C(F)(F)C(=O)O)ccc12` [example 53, [1-(2-cyano-6-hydroxymethylbenzyl)-3-methyl-1H-indazol-6-yl]difluoroacetic acid], for which the negative-log IC50 (pIC50) was 6.41.
